Assay results: patent US20260207604A1, “COMPOUND AND USE THEREOF” (ONQUALITY PHARMACEUTICALS CHINA LTD., priority 2022, published 2026)
Like-named read-outs stand apart in the source and are kept apart here.

Columns and labels:
CDK4/cyclin D = CDK4/cyclin D (Homo sapiens, UniProt P11802); assay: KinaseProfile radiometric protein kinase assay, CDK4/cyclin D; type: biochemical
Method: (§1) The KinaseProfile radiometric protein kinase assay was used to evaluate the inhibitory activity of the compounds against CDK2/cyclin E, CDK4/cyclin D, CDK6/cyclin D, CDK7/cyclin H and CDK9/cyclin T.
(§2) The compounds were prepared in 100% DMSO at a final 50× stock concentration. The working stock solution was added as the first component to the assay wells. CDK2/cyclin E, CDK4/cyclin D, CDK6/cyclin D, CDK7/cyclin H, and CDK9/cyclin T were added in their respective kinase buffers: (CDK4: 8 mM MOPS pH 7.0, 0.2 mM EDTA, 0.03% BSA, 0.03% Tween 20, 20 mM DTT, and 0.2 mg/ml Rb fragment, 10 mM Magnesium acetate; CDK2, CDK6: 8 mM MOPS pH 7.0, 0.2 mM EDTA, 0.1 mg/mL histone H1, 10 mM Magnesium acetate; CDK7: 8 mM MOPS pH 7.0, 0.2 mM EDTA, 500 μM peptide, 10 mM Magnesium acetate; CDK9: 8 mM MOPS pH 7.0, 0.2 mM EDTA, 100 μM […], 10 mM Magnesium acetate) and [γ-^33 P-ATP] was included in the reaction mixture. The reaction was initiated by the addition of the Mg/ATP mixture and incubated at room temperature for 40 minutes. The reaction was terminated by the addition of 0.5% phosphoric acid. Then, 10 μL of the reaction mixture was spotted onto P30 filter pads, washed four times (1 minute each) with 0.425% phosphoric acid, followed by a single wash with methanol. The pads were then dried and counted. The data were recorded, inhibition rates were calculated, and IC50 values were determined accordingly. Table 2 summarizes the in vitro enzymatic inhibitory activity of the compounds of the present application.

[1] = system: 5-FU-induced diarrhea model; assay: 5-FU-induced diarrhea model, 5-FU 3-day model; type: in vivo, Balb/c mice; conditions: 5-FU 60 mg/kg once a day for 3 days, mice
Method: The 5-FU-induced diarrhea model was used as an experimental model of the present invention to evaluate the in vivo activity of the compounds.
Balb/c mice (20-25 g, 7-8 weeks old, Jihui) were acclimated for one week and then randomly assigned to 3 groups (n=10 per group): control group, 5-FU group, and CDK inhibitor group. […] […] […] From Day 1 to Day 7, diarrhea severity was assessed daily for each mouse according to the diarrhea scoring system.
(§3) The diarrhea scoring system was based on the method by Akinobu Kurita (Cancer Chemother Pharmacol 2000; 46:211-20), Grade 0: normal stool; Grade 1: mild diarrhea, slightly soft stool and wet stool; Grade 2: moderate diarrhea, loose stool with slight perianal staining; Grade 3: severe diarrhea, loose watery stool with severe perianal staining.
The diarrhea relief rate (%) was calculated as follows: […]

CDK6/cyclin D = CDK6/cyclin D (Homo sapiens, UniProt Q00534); assay: KinaseProfile radiometric protein kinase assay, CDK6/cyclin D; type: biochemical
CDK6/cyclin D, sequence (Q00534 whole entry): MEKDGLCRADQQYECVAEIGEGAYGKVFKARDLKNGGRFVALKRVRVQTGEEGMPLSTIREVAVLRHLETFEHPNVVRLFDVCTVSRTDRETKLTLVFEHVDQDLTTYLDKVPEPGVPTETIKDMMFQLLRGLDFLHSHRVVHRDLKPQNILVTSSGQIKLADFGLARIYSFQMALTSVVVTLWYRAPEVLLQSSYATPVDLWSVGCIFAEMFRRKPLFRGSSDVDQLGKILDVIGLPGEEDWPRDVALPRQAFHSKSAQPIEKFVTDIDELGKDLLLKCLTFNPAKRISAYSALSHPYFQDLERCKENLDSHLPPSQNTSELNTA
CDK6/cyclin D, sequence (P30281 whole entry partner): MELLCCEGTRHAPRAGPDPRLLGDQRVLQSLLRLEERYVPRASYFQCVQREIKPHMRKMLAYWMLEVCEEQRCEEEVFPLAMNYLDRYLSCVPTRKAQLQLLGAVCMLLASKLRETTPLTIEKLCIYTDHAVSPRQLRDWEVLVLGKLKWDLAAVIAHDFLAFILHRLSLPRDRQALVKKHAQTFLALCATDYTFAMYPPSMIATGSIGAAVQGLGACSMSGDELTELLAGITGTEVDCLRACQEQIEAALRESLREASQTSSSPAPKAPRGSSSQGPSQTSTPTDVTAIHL
Method: as §1, §2

CDK7/cyclin H = CDK7/cyclin H (Homo sapiens, UniProt P50613); assay: KinaseProfile radiometric protein kinase assay, CDK7/cyclin H; type: biochemical
CDK7/cyclin H, sequence (P50613 whole entry): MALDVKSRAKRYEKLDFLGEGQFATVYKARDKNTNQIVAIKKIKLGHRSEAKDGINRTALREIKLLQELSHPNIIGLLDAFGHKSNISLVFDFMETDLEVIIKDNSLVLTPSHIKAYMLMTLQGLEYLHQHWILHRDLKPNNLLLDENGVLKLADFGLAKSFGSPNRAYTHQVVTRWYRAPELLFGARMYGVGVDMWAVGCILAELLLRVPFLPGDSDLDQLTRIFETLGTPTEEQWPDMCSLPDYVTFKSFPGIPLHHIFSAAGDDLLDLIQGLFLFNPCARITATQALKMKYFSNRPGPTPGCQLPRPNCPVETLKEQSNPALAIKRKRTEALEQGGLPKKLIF
CDK7/cyclin H, sequence (P51946 whole entry partner): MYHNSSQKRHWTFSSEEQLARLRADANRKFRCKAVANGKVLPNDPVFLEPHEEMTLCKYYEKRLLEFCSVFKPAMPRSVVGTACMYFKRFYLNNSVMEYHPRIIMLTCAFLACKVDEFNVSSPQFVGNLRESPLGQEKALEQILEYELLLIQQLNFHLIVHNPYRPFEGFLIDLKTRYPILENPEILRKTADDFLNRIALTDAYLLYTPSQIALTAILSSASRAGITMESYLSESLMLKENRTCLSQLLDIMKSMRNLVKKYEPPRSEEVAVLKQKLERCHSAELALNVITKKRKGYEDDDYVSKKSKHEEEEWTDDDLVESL
CDK7/cyclin H, sequence (P51948 whole entry partner): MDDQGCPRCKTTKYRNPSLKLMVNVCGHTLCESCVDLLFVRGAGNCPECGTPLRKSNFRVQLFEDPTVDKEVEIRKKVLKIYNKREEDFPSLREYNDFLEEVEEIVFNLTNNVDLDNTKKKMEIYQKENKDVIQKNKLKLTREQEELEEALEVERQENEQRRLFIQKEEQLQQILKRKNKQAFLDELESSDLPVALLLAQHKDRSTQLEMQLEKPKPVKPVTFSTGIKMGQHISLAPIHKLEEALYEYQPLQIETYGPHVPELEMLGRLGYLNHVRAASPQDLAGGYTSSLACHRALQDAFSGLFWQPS
Method: as §1, §2

CDK9/cyclin T = CDK9/cyclin T (Homo sapiens, UniProt P50750); assay: KinaseProfile radiometric protein kinase assay, CDK9/cyclin T; type: biochemical
CDK9/cyclin T, sequence (P50750 whole entry): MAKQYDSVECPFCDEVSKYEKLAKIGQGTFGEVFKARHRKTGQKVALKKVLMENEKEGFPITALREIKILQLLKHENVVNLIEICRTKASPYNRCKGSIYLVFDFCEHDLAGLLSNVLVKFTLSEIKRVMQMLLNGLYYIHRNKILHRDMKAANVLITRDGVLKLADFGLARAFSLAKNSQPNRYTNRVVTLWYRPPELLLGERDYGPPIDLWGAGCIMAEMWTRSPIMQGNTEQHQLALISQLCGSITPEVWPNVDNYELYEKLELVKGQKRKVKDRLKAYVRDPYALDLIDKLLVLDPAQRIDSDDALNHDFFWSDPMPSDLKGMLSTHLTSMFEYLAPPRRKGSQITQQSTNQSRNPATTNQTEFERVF
CDK9/cyclin T, sequence (O60563 whole entry partner): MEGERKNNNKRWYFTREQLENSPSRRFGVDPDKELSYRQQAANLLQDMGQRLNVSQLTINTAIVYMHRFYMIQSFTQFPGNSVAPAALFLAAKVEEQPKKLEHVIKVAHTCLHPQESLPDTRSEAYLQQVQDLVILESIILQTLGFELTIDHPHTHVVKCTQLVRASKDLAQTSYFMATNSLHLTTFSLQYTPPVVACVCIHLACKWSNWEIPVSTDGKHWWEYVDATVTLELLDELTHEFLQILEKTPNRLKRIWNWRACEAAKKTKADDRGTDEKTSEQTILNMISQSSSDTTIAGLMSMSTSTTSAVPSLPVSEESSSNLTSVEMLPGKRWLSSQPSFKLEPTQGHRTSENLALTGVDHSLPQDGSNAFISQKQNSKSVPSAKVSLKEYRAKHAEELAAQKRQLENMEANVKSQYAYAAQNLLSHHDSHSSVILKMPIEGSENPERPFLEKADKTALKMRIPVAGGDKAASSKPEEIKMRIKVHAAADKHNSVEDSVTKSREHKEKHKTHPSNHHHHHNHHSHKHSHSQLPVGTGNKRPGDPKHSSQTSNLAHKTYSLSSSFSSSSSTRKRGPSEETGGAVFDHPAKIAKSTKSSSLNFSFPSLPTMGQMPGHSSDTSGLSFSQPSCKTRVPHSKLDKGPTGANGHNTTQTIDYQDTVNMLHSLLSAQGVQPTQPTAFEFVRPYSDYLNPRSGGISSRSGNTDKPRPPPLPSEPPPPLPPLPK
Method: as §1, §2

[2] = system: Human colorectal cancer COLO205 cells; assay: Cell apoptosis assay (Caspase-Glo 3/7), 5-FU-induced apoptosis; type: cell-based
Method: The Caspase-Glo® 3/7 assay was employed to evaluate the protective effect of the compounds of the present invention against 5-fluorouracil (5-FU)-induced apoptosis. Human colorectal cancer COLO205 cells were cultured in RPMI 1640 medium (Invitrogen) in an incubator at 37° C. with 5% CO2.
COLO205 cells were seeded in 96-well plates at a density of 4,000 cells per well and incubated overnight. On the following day, serially diluted concentrations of Compound 1 were added to the wells and incubated for 16 hours. Afterward, 5-FU was added and the cells were incubated for an additional 48 hours. Subsequently, Caspase-Glo® 3/7 reagent (100 μL) was added to each well. The cells were mixed on an orbital shaker for 10 min and incubated at room temperature for 2 h. After an additional 10-minute incubation, the plate was measured using the Envision instrument and the data was processed. Relief rate (%)=(5-FU group−CDK group)/5-FU group×100%.

[3] = system: Irinotecan-induced diarrhea model; assay: Irinotecan-induced diarrhea model; type: in vivo, Balb/c mice; conditions: irinotecan 230 mg/kg once a day, 1 day, mice
Text: Irinotecan-induced diarrhea and/or constipation models were employed as additional in vivo experimental models to evaluate the activity of the compounds of the present application.
Balb/c mice (20-25 g, 7-8 weeks old, Jihui) were acclimated for one week and then randomly assigned to 3 groups (n=10 per group): control group, irinotecan group, and CDK inhibitor group. Control group: received the same vehicle as the CDK inhibitor group by oral gavage, followed by injection of the same vehicle as the irinotecan group; irinotecan group: received the same vehicle by oral gavage as the CDK inhibitor group, followed by injection of irinotecan; CDK inhibitor group: received oral administration of the CDK inhibitor, followed by injection of irinotecan.
In the irinotecan group, approximately 6 to 9 out of 10 mice developed diarrhea. From Day 1 to Day 7, the severity of diarrhea in each mouse was evaluated using the following scoring criteria:
as §3, with “staining. Calculate the diarrhea Relief rate of compound treatment. Relief rate (%)=(diarrhea score of irinotecan group−diarrhea score of CDK inhibitor group)/diarrhea score of irinotecan group×100%.” for “staining.”

[4] = system: MCF-7 human breast cancer cells; assay: Cell viability assay (CELLTITER-GLO); type: cell-based; conditions: MCF7, 168 h, MCF-7 cells, 7 days
Method: The cell viability of MCF-7 human breast cancer cells under standard culture conditions was assessed using the CELLTITER-GLO assay. MCF-7 cells were seeded at 3,000 cells per well in 96-well plates and incubated overnight in a CO2 incubator. The next day, serial dilutions of Compound 1 at various concentrations were added to the wells. The plates were returned to the incubator and cultured for 7 days. After 7 days, the plates were equilibrated at room temperature for 30 minutes. Subsequently, 100 μL of CELLTITER-GLO detection solution was added. The cells were mixed on an orbital shaker for 5 min and then incubated for additional 10 min. The plate was read with an ENVISION reader. Data were processed and analyzed to determine the IC50 values.

[5] = 10 mg/kg oral twice a day for 3.5 days
[6] = 25 mg/kg oral twice a day for 3.5 days
[7] = 50 mg/kg oral twice a day for 3 days
[8] = 100 mg/kg oral twice a day for 3 days
[9] = 10 mg/kg oral twice a day for 3 days
[10] = 50 mg/kg oral twice a day for 4 days
[11] = 25 mg/kg oral, 4 hours before and 8 hours after irinotecan
[12] = 25 mg/kg oral, 6 hours before and 6 hours after irinotecan
[13] = 50 mg/kg oral, 8 hours before irinotecan and 4 hours after irinotecan
[14] = 100 mg/kg oral, 12 hours before irinotecan

CDK4/cyclin D, sequence (P11802 whole entry): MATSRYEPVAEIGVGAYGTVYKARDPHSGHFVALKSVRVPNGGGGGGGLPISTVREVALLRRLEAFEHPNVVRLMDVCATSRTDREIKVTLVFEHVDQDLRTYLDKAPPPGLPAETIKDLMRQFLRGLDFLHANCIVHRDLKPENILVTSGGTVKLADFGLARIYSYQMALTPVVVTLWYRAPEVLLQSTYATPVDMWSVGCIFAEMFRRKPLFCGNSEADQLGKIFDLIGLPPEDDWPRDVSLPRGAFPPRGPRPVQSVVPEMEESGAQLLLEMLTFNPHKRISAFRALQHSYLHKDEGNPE
CDK4/cyclin D, sequence (P30281 whole entry partner): as the sequence (P30281 whole entry partner) above

IC50 (CDK4/cyclin D) [µM]	IC50 (CDK6/cyclin D) [µM]	IC50 (CDK7/cyclin H) [µM]	IC50 (CDK9/cyclin T) [µM]	IC50 ([4]; read-out: Absolute IC 50) [µM]	IC50 ([4]; read-out: Relative IC 50) [µM]	SMILES	diarrhea relief rate [1, 5] [%]	diarrhea relief rate [1, 6] [%]	diarrhea relief rate [1, 7] [%]	diarrhea relief rate [1, 8] [%]	Relief rate of 5-FU -induced cell apoptosis ([2]; concentration 10 μM) [%]	Relief rate of 5-FU -induced cell apoptosis ([2]; concentration 25 μM) [%]	Relief rate of 5-FU -induced cell apoptosis ([2]; concentration 50 μM) [%]	Relief rate of 5-FU -induced cell apoptosis ([2]; concentration 100 μM) [%]	diarrhea relief rate [1, 9] [%]	diarrhea relief rate [1, 10] [%]	Relief rate of 5-FU -induced cell apoptosis ([2]; concentration 1 μM) [%]	Relief rate of 5-FU -induced cell apoptosis ([2]; concentration 5 μM) [%]	diarrhea relief rate [3, 11] [%]	diarrhea relief rate [3, 12] [%]	other results
< 0.05	< 0.05	> 3	> 3	< 1	< 1	CC(=O)c1c(C)c2cnc(Nc3ccc(N4CCN(S(=O)(=O)NCCCN)CC4)cn3)nc2n(C2CCCC2)c1=O [Compound 4]	50	55	60	40	40	50	50	30	–	–	–	–	–	–	diarrhea relief rate ([1]; 5 mg/kg oral twice a day for 3 days): 30%; diarrhea relief rate ([1]; 10 mg/kg oral twice a day for 4 days): 40%; diarrhea relief rate ([3]; 25 mg/kg oral, 2 hours before and 10 hours after irinotecan): 30%; diarrhea relief rate ([3]; 50 mg/kg oral, 4 hours before and 8 hours after irinotecan): 60%; diarrhea relief rate ([3]; 50 mg/kg oral, 6 hours before and 6 hours after irinotecan): 60%; diarrhea relief rate ([3]; 150 mg/kg oral, 10 hours before irinotecan): 45%
< 0.05	< 0.05	> 3	> 1	< 0.5	< 1	CC(=O)c1c(C)c2cnc(Nc3ccc(N4CCN(S(=O)(=O)NCC(C)(C)N)CC4)cn3)nc2n(C2CCCC2)c1=O [Compound 2]	–	50	60	–	70	–	40	–	25	40	40	50	70	60	diarrhea relief rate ([1]; 25 mg/kg oral twice a day for 3 days): 40%; diarrhea relief rate ([1]; 100 mg/kg oral twice a day for 3.5 days): 50%; diarrhea relief rate [3, 13]: 75%; diarrhea relief rate [3, 14]: 50%
< 0.05	< 0.1	> 3	> 1	< 1	< 1	CC(=O)c1c(C)c2cnc(Nc3ccc(N4CCN(S(=O)(=O)NCC(C)(C)CN)CC4)cn3)nc2n(C2CCCC2)c1=O [Compound 6]	–	–	–	60	–	70	–	–	30	75	40	60	85	60	diarrhea relief rate ([1]; 20 mg/kg oral twice a day for 3.5 days): 50%; diarrhea relief rate ([1]; 30 mg/kg oral twice a day for 3 days): 50%; diarrhea relief rate ([1]; 80 mg/kg oral twice a day for 3.5 days): 60%; Relief rate of 5-FU -induced cell apoptosis ([2]; concentration 0.1 μM): 20%; diarrhea relief rate ([3]; 10 mg/kg oral, 4 hours before and 8 hours after irinotecan): 50%; diarrhea relief rate [3, 14]: 40%
< 0.1	< 0.05	> 10	> 3	< 10	< 10	CC(=O)c1c(C)c2cnc(Nc3ccc(N4CCN(S(=O)(=O)NCC(C)CN)CC4)cn3)nc2n(C2CCCC2)c1=O (centres unmarked) [Compound 5]	75	–	40	50	–	–	40	30	40	–	–	50	–	50	diarrhea relief rate ([1]; 30 mg/kg oral twice a day for 4 days): 30%; diarrhea relief rate ([1]; 60 mg/kg oral twice a day for 3.5 days): 50%; Relief rate of 5-FU -induced cell apoptosis ([2]; concentration 0.5 μM): 10%; diarrhea relief rate ([3]; 5 mg/kg oral, 4 hours before and 8 hours after irinotecan): 25%; diarrhea relief rate [3, 13]: 50%; diarrhea relief rate ([3]; 100 mg/kg oral, 10 hours before irinotecan and 2 hours after irinotecan): 35%
